# Where two headings read alike, the source gives them in different places.
# What was measured:
# serotonin transporters = settings: document 11, page 320; cited from earlier work
# dopamine transporters [1] = target: T1, dopamine transporters (Rattus norvegicus, UniProt P23977); test: affinity of IPT for dopamine transporters (document 11); format: binding; settings: from document 11 values
# Source text: Therefore a specificity Kd(5-HT)/Kd(DA) of approximately 5 is obtained.
# By way of comparison, the affinity of compound IPT for dopamine transporters described in document 11 corresponds to: […]
# dopamine transporters [2] = target: T1, dopamine transporters; settings: document 11; cited from earlier work
# serotonin transporter [3] = test: in vivo brain biodistribution in the rat with preinjection of paroxetine (specific inhibitor of the serotonin transporter); design: species or system rat (male Wistar); settings: for specificity for the dopamine transporter compared with the serotonin transporter in vivo: rat brain
# Description: (§1) In this example, in vivo tests in the rat are used to study the affinity and specificity of the compound of example 1, hereinafter called PE21, for the dopamine transporter.
# Batch number 2 first receives an injection of paroxetine (specific inhibitor of the serotonin transporter made by Beecham laboratories) at a dose of 5 mg/kg, and 30 minutes later an injection of the compound of example 1 is given under the same conditions as for batch number 1.
# (§2) Batch number 3, or the reference batch, only receives an intravenous injection of the compound of example 1.
# (§3) 2 hours later, the animals are sacrificed and the doses of radioactivity in the cerebellum, striatum and frontal cortex tissues are determined.
# (§4) The results obtained are given in FIG. 2 and are expressed as a % of the dose injected per gram of tissue.
# (§5) In this figure, the columns in white relate to batch number 3 (reference), the shaded columns relate to batch number 1 which received GBR 12909 and the dotted columns relate to batch number 2 which received paroxetine.
# (§6) In this example, the same operating mode as in example 14 is followed to conduct the same in vivo brain biodistribution study in the rat, but using the compound of the prior art β-CIT (3b-4-iodo[^125 I]phenyl)-tropan-2β-carboxylic acid methyl ester) instead of the compound of example 1.
# [4] = target: T2, noradrenaline transporter (Rattus norvegicus, UniProt Q63380); test: in vitro competition with [^3 H]-nisoxetine on brain membrane preparations; format: binding
# T2 construct: in vitro studies are conducted on brain membrane preparations; from tissue; host or cells: brain membrane preparations
# T2 sequence (Q63380 1-617): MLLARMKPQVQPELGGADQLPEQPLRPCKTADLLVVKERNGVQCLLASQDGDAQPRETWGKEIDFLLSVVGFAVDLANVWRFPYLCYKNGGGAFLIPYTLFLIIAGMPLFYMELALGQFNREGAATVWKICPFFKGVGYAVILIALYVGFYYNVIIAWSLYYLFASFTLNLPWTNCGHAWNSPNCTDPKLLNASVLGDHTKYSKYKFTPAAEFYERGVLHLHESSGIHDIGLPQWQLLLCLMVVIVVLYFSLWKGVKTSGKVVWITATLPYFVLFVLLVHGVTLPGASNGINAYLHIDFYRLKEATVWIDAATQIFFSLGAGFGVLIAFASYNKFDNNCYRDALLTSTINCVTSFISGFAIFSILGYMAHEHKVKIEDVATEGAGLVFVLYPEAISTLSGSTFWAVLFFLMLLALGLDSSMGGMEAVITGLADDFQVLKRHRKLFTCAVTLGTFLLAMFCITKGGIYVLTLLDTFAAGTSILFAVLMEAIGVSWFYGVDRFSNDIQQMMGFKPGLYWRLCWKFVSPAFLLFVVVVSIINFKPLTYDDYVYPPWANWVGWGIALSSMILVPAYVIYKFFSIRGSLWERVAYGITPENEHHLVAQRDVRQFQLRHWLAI
# Description: (§7) In this example, in vitro studies are conducted on brain membrane preparations.
# (§8) These studies are competition studies between [^3 H]-GBR 12935 (dopamine transporter), [^3 H]-paroxetine (serotonin transporter), [^3 H]-nisoxetine (noradrenaline transporter) and the iodinated derivative of example 1 (PE21).
# (§9) The inhibition constants Ki (nM) obtained with the compound of the invention PE21 in competition with the different ligands are given in table 4.
# (§10) Med., 1996, 37, pages 1197-1202 for tests of the same type conducted with β-CIT and iodoaltropane described in WO-A-95/11901.
# dopamine transporter [5] = test: in vivo brain biodistribution in the rat with preinjection of GBR 12909 (specific inhibitor of the dopamine transporter); design: species or system rat (male Wistar); settings: for fixation in the striatum prevented/inhibited by preinjection of GBR 12909: GBR 12909 5 mg/kg i.v. 30 min before, 2 hours after injection
# Description: as §1
# (§11) For this purpose 3 batches of male Wistar rats are used using 6 rats per batch. Batch number 1 is first given an intravenous injection of GBR 12909 (specific inhibitor of the dopamine transporter produced by RBI Bioblock) at a dose of 5 mg/kg, and 30 minutes later an injection of the compound of example 1 is given by intravenous route, at a dose of 8.10^-6 mg/kg.
# as §2, §3, §4, §5, §6
# dopamine transporter [6] = settings: [^3 H]Win35428; document 10; read-out: Affinity: Ki (nM) Dopamine (DA); cited from earlier work
# dopamine transporter [7] = test: in vitro competition with [^3 H]-GBR 12935 on brain membrane preparations; format: binding; settings: for Ki: read-out: Affinity: Ki (nM) Dopamine (DA); for Selectivity 5-HT/DA, Ki(5-HT):Ki(DA): [^3 H]paroxetine Ki over [^3 H]GBR Ki
# Description: as §7, §8, §9, §10
# serotonin transporter [8] = target: T3, serotonin transporter (Rattus norvegicus, UniProt P31652); test: biochemical; format: binding
# T3 construct: in vitro studies are conducted on brain membrane preparations; from tissue; host or cells: brain membrane preparations
# T3 sequence (P31652 whole entry): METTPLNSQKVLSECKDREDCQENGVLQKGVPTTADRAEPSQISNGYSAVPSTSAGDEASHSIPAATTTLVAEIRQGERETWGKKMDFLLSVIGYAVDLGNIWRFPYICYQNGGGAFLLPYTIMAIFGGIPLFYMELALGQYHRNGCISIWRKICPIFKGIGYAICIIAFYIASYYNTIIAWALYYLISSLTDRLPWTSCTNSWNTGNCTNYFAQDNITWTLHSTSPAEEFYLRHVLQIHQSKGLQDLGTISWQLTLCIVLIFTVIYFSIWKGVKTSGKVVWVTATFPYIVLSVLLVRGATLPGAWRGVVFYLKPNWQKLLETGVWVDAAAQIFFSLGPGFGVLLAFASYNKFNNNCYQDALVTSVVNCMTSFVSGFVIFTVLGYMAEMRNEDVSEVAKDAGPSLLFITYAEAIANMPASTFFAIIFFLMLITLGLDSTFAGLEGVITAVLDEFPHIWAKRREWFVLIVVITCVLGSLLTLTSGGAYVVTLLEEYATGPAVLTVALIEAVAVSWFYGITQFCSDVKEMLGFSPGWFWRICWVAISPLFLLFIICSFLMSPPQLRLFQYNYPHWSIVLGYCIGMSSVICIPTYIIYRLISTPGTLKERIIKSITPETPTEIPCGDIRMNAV
# Description: as §7, §10
# [9] = system: dopamine transporter system; settings: prior art compound; source not stated; cited from earlier work
# serotonin transporter [10] = target: serotonin transporter (Macaca fascicularis, UniProt A7KAX8); settings: read-out: Affinity: Ki (nM) Serotonin 5-HT; [^3 H]citalopram; document 10; cited from earlier work
# Sequence of serotonin transporter (Macaca fascicularis, UniProt A7KAX8) (A7KAX8 1-630): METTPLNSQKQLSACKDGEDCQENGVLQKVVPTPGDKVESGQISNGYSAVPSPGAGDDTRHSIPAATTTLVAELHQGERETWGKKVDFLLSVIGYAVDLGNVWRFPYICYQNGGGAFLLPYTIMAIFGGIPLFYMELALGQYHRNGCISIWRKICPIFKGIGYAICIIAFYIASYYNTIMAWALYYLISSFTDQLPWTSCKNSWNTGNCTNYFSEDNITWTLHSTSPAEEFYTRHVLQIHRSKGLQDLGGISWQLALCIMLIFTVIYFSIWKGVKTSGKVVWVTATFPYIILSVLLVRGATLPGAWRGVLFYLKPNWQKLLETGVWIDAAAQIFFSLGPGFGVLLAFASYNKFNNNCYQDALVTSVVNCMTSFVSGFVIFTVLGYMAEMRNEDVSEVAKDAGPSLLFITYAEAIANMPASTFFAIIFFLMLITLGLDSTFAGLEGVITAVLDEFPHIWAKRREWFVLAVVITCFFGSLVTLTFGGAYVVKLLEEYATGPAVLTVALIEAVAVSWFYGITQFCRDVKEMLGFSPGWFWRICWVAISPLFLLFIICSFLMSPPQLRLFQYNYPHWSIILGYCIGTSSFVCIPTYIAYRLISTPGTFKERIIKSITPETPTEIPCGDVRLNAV
# dopaminergic cells = test: rat model of Parkinson's disease (unilateral 6-OHDA lesion of the nigrostriatal pathway), ex vivo autoradiography; format: in vivo, rat (Wistar); settings: 2 hours after 3.7 MBq i.v.
# Description: In this example, the compound of example 1 PE21 was tested in the rat using a model of Parkinson's disease obtained with a unilateral lesion of the nigrostriatal pathway. For this purpose Wistar rats were unilaterally perfused in the substantia nigra with 8 μg of 6-OHDA(6-hydroxy dopamine).
# Three weeks later, they were given an intravenous 3.7 MBq injection of [^125 I]PE21.
# Two hours afterwards, the rats were sacrificed and their brains collected. The latter were frozen and coronal sections 20 μm thick were taken which were exposed on β-max hyperfilm for six weeks.
# The striatum/frontal cortex ratios were calculated after analysis of the films. On the lesion side, an average ratio of 0.86±0.10 was observed, while this ratio was 7.20±0.91 on the intact side.
# dopamine transporters [11] = target: T1, dopamine transporters; test: in vitro affinity of [^125 I]PE21 for dopamine transporters; format: binding
# Description: The affinity of compound [^125 I)PE21 for dopamine transporters was also determined in vitro, and the following value was obtained: […]
# [12] = system: dopamine transporter system; test: kinetics study in vivo on the brain distribution in primates (SPECT, […]); design: species or system primates (Cynomologus female macaque); settings: words
# Description: In this example, a kinetics study in vivo is made on the brain distribution of the compound of example 1 in primates (Cynomologus female macaque, 2 kg, anaesthetized with ketamine, with data acquisition made every 12 minutes on […]).
# [13] = biodistribution study in the rat, time course (cerebellum, striatum, frontal cortex); format: in vivo, rat (male Wistar); settings: for tissue uptake at 0.5 h / tissue uptake at 1 h / tissue uptake at 2 h / tissue uptake at 4 h: rat, iv, 8e-06 mg/kg; for tissue uptake at 0.5 h: 0.5 h post-injection; for tissue uptake at 1 h: 1 h post-injection; for tissue uptake at 2 h: 2 h post-injection; for tissue uptake at 4 h: 4 h post-injection
# Description: as §11, §2, §3, §4
# In this example, a biodistribution study in the rat is also conducted for the compound of example 1 following the same operating mode as in example 14, but sacrificing the animals at 1/2 hour, 1 hour or 4 hours after injection.
# In this table, the results obtained in example 14 are also given.
# dopamine transporter [14] = settings: Bonnet and Constantin 1986; cited from earlier work
# dopamine transporter [15] = test: competition with [^3 H]Win35428 (document 10); format: binding; settings: document 10 data
# Source text: as §10
# [16] = cerebellum, read-out: Cerebellum
# [17] = frontal cortex, read-out: Frontal cortex (% injected dose/g tissue)
# [18] = striatum, read-out: Striatum (% injected dose/g tissue)
# T1 sequence (P23977 whole entry): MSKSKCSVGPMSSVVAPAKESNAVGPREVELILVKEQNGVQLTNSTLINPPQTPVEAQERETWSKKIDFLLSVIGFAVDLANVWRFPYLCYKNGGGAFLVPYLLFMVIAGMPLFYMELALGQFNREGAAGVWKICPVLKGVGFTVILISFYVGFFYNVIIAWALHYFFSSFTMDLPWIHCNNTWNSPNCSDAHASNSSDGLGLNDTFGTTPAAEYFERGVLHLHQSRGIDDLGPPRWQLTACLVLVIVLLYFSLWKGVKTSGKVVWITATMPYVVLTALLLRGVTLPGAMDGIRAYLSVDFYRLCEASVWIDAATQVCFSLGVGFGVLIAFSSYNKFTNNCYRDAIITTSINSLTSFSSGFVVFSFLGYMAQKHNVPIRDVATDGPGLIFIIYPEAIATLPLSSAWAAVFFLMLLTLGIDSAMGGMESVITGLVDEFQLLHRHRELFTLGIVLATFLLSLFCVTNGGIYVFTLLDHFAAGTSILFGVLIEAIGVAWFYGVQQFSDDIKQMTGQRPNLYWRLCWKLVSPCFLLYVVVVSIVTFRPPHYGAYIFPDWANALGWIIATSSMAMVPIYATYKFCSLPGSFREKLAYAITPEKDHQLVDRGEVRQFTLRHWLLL
smiles,measurement,setting,value
COC(=O)[C@H]1[C@@H](c2ccc(Cl)cc2)C[C@@H]2CC[C@H]1N2CC=CI [IPT],Kd,serotonin transporters,1.2 ± 0.02 nM
same,specificity Kd(5-HT)/Kd(DA),dopamine transporters [1],approximately 5
same,Kd,dopamine transporters [2],0.25 ± 0.02 nM
"COC(=O)[C@H]1[C@@H](c2ccc(I)cc2)C[C@@H]2CC[C@H]1N2C [β-CIT, 2β-carbomethoxy-3β-(4' iodophenyl)-tropane, reference compound]",fixation in the frontal cortex compared with the compound of the invention,"serotonin transporter [3]; frontal cortex, rich in serotonin transporter sites, 2 hours, words",much higher than that of the compound of the invention
same,inhibition of fixation in the frontal cortex through a preinjection of paroxetine,"serotonin transporter [3]; frontal cortex, paroxetine 5 mg/kg i.v. 30 min before, 2 hours",55%
same,specificity for the dopamine transporter compared with the serotonin transporter in vivo,serotonin transporter [3]; words,binds to both these transporters
same,Ki,[4],80 ± 28 nM
same,non-specific fixation in the striatum determined after saturation with GBR 12909,dopamine transporter [5]; 2 hours,~70%
same,fixation in the striatum prevented/inhibited by preinjection of GBR 12909,dopamine transporter [5],31%
same,Ki,dopamine transporter [6],1.08 ± 0.6 nM
same,Ki,dopamine transporter [7]; [^3 H]GBR,27 ± 2 nM
same,"Selectivity 5-HT/DA, Ki(5-HT):Ki(DA)",dopamine transporter [7],1.11
same,Ki,serotonin transporter [8],30 ± 2 nM
same,time at which a specific image of the central grey nuclei starts to be produced,[9],> 20 h
same,Ki,serotonin transporter [10],2.53 ± 0.02 nM
"COC(=O)[C@H]1[C@@H](c2ccc(C)cc2)C[C@@H]2CC[C@H]1N2C/C=C/[125I] [Example 1, 2β-carbomethoxy-3β-(p-methylphenyl)-8-(3-[^125 I]iodoprop-2E-enyl)nortropane]","striatum/frontal cortex ratio, lesion side",dopaminergic cells; 6-OHDA lesion side,0.86±0.10
same,"striatum/frontal cortex ratio, intact side",dopaminergic cells; intact side,7.20±0.91
same,specificity for the dopamine transporter compared with the serotonin transporter in vivo,serotonin transporter [3]; words,very strong specificity for the dopamine transporter compared with the serotonin transporter
same,Ki,"[4]; [^3 H]nisoxetine, read-out: Affinity: Ki (nM) Nor-adrenaline",> 100 nM
same,non-specific fixation in the striatum determined after saturation with GBR 12909,dopamine transporter [5]; 2 hours,approximately 25%
same,specificity for the dopamine transporter in the striatum at early times,"dopamine transporter [5]; 2 hours, words",very strong specificity for the dopamine transporter in the striatum
same,fixation in the striatum prevented/inhibited by preinjection of GBR 12909,dopamine transporter [5],74%
same,affinity relative to IPT,dopamine transporters [11]; Kd of PE21 vs Kd of IPT (document 11),2.5 times
same,Kd,dopamine transporters [11]; [^125 I]PE21,0.09 ± 0.01 nM
same,binding at the central grey nuclei,[12],binds itself in specific manner at the central grey nuclei
same,specificity relative to IPT,dopamine transporter [7]; Ki(5-HT)/Ki(DA) of PE21 vs Kd(5-HT)/Kd(DA) of IPT,5 times
same,Ki ratio DA (PE21)/DA (β-CIT),dopamine transporter [7]; [^3 H]GBR,0.63
same,Ki,dopamine transporter [7]; [^3 H]GBR,17 ± 7 nM
same,"Selectivity 5-HT/DA, Ki(5-HT):Ki(DA)",dopamine transporter [7],29.4
same,better affinity for dopamine transporter relative to iodoaltropane,dopamine transporter [7]; from Ki ratios to β-CIT,10 times
same,Ki,serotonin transporter [8],500 ± 80 nM
same,tissue uptake at 0.5 h,[13]; [16],0.1 %ID/g
same,tissue uptake at 1 h,[13]; [16],0.055 %ID/g
same,tissue uptake at 2 h,[13]; [16],0.038 %ID/g
same,tissue uptake at 4 h,[13]; [16],0.021 %ID/g
same,tissue uptake at 0.5 h,[13]; [17],0.124 %ID/g
same,tissue uptake at 1 h,[13]; [17],0.07 %ID/g
same,tissue uptake at 2 h,[13]; [17],0.039 %ID/g
same,tissue uptake at 4 h,[13]; [17],0.018 %ID/g
same,tissue uptake at 0.5 h,[13]; [18],1.06 %ID/g
same,tissue uptake at 1 h,[13]; [18],0.537 %ID/g
same,tissue uptake at 2 h,[13]; [18],0.272 %ID/g
same,tissue uptake at 4 h,[13]; [18],0.074 %ID/g
same,accumulation in the striatum,[13]; words,accumulates in preferential manner in the striatum
C(=Cc1ccccc1)CN1CCN(CCOC(c2ccccc2)c2ccccc2)CC1 [GBR 12783],Kd,dopamine transporter [14],1.6 nM
COC(=O)[C@H]1[C@@H](c2ccc(F)cc2)C[C@@H]2CC[C@H]1N2C/C=C/I [Iodoaltropane],Ki ratio DA (iodoaltropane)/DA (β-CIT),dopamine transporter [15],6
same,Ki,dopamine transporter [6],6.62 ± 0.78 nM
same,Ki,serotonin transporter [10],182 ± 41.8 nM

# From patent US6180083A, “Tropane derivatives useable in particular for in vivo detection of dopamine transporters” (CIS bio International, priority 1996, dated 2001)
